According to PMC7481290, “Halogenation as a tool to tune antimicrobial activity of peptoids” (Scientific Reports, 2020):
Values after ≈ are worked out from the molar mass of the structure shown. Non-standard residues stand in square brackets, D forms with d. Residues, ends and D or L forms follow the SMILES beside them. NBzl(4-I)Gly = O=C(O)CNCc1ccc(I)cc1; Nspe = C[C@H](NCC(=O)O)c1ccccc1; Nlys = NCCCCNCC(=O)O

What was measured:
[1] = Critical aggregation concentration from SAXS fit analysis; format: physicochemical
Procedure: SAXS experiments of the 10-mer peptoids were performed at the automated BM29 bioSAXS beamline at the European Synchrotron Radiation Facility (ESRF) in Grenoble, France[45]. The data was obtained using an energy of 12.5 keV and a detector distance of 2.87 m, covering a q range ( q=4πsin(θ/2)/λ ), where θ is the scattering angle and λ is the X-ray wavelength) of about 0.0047 to 0.5 Å^−1. The data set was calibrated to an absolute intensity scale using water as a primary standard. 40 µL samples were run through a capillary using the flow mode of the automated sample changer. SAXS data was collected in ten successive frames of 0.5 s each to monitor radiation damage and the data reduction was done using the standard tool at BM29[47].
The SAXS experiments on the fully iodinated 6-, 8-, and 12-mers to determine the CAC of the compounds were performed using a Bruker NANOSTAR equipped with a microfocus X-ray source (IμS Cu, Incoatec, Germany) and a VÅNTEC-2000 detector. Raw scattering data was calibrated to absolute intensity scale using water as a primary standard and radially averaged in order to obtain the 1D scattered intensity profile as a function of the scattering vector, with a wavelength of 1.54 Å.
The modelling fit analysis of the scattering data is explained in detail in the supplementary information.

[2] = tested on: selected bacterial strains (S. aureus, S. epidermidis, E. coli, P. aeruginosa); format: cell-based
Procedure: All 36 peptoids were tested against seven bacterial strains: five Gram-positive (Staphylococcus aureus ATCC 25923 and ATCC 29213, methicillin-resistant Staphylococcus aureus USA 300, methicillin-resistant Staphylococcus epidermidis ET-024 and ATCC 51625) and two Gram-negative (Escherichia coli ATCC 25922, Pseudomonas aeruginosa PA01) (Table 1).
Bacterial growth inhibition was determined by using broth microdilution according to the Clinical Laboratory Standards Institute[43]. The antibacterial activity of peptoids was tested against S. aureus ATCC 25923, ATCC29213, and methicillin resistant S. aureus USA 300, methicillin resistant S. epidermidis ATCC 51625, a biofilm producing methicillin resistant S. epidermidis ET-024[44], P. aeruginosa Pa01 (H103), and E. coli ATCC 25922. Bacteria, grown on agar plates for 18 h at 37 °C, were diluted to ∼1 × 10^8 CFU/mL in Mueller‐Hinton Broth II (MHB II). Twofold serial dilutions of peptoids in MHB II were inoculated with bacteria to achieve a final concentration of 5 × 10^5 CFU/mL in polypropylene 96 U‐well microtiter plates (Corning 3,897; ThermoFisher Scientific, Roskilde), followed by incubation at 37 °C in ambient air for 18 h. The MIC values were determined as the lowest concentration showing no visible bacterial growth. Experiments were performed twice (in technical triplicates) on 2 different days.

[3] = tested on: P. aeruginosa PA01 (H103); format: cell-based, Pseudomonas aeruginosa
Procedure, shortened: (§1)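 Broth microdilution per CLSI in MHB II, final inoculum 5 × 10^5 CFU/mL, with twofold peptoid dilutions. Incubation was 18 h at 37 °C in ambient air. MIC was taken as the lowest concentration without visible growth, from two experiments on different days in technical triplicate.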

[4] = tested on: Methicillin-resistant S. aureus USA 300; format: cell-based, Staphylococcus aureus
Procedure, shortened: as §1

S. aureus ATCC 29213 = format: cell-based, Staphylococcus aureus; conditions: ATCC 29213, 18 h
Procedure, shortened: as §1

S. aureus ATCC 25923 = format: cell-based, Staphylococcus aureus
Procedure, shortened: as §1

E. coli ATCC 25922 = format: cell-based, Escherichia coli
Procedure, shortened: as §1

[5] = tested on: Methicillin-resistant S. epidermidis ET-024; format: cell-based, Staphylococcus epidermidis
Procedure, shortened: as §1

[6] = tested on: Methicillin-resistant S. epidermidis ATCC 51625; format: cell-based, Staphylococcus epidermidis
Procedure, shortened: as §1

HaCaT cell line = format: cell-based, human; conditions: 1 h exposure, MTS/PMS assay; interval in brackets
Procedure: An immortalized human keratinocytes (HaCaT) cell line (Gift from David G. Naym at Bispebjerg Hospital) were cultured to ∼90% confluence after 21–25 h of growth at 5% CO2 and 37 °C as previously. In brief, the cells were cultured in Dulbecco’s Modified Eagle’s Medium supplemented with 10% (v/v) fetal bovine serum, penicillin (100 IU/mL), and streptomycin (100 μg/mL), purchased from Sigma-Aldrich (St. Louis, MO, United States).
Cell viability assessment was performed on cell monolayers grown to ∼90% confluence in 96-well plates Corning Costar (Sigma-Aldrich, Brøndby, Denmark) by using the MTS/PMS assay as previously described. Briefly, the adhered cells were washed with 37 °C PBS solution (ThermoFisher Scientific, Roskilde) and exposed for 1 h at 37 °C to 100 μL of peptoids dissolved in the medium also used for culturing of the cell line (at concentrations in the range 0–1,000 μg/mL). The precise exposure-time were selected to enable comparison with related peptoid compounds[21],[35]. […] A plate reader (SpectraMax i3X; Molecular devices, San Jose, CA) was used to measure the absorbance at 492 nm. The relative viability was calculated by using 0.2% (w/v) sodium dodecyl sulfate (SDS) as the positive control, while cells exposed to medium without test compound were used as the negative control. […]

Compound: NCCCCNCC(=O)N(CC(=O)N(CCCCN)CC(=O)N(CC(=O)N(CCCCN)CC(=O)N(CC(=O)N(CCCCN)CC(=O)N(CC(=O)N(CCCCN)CC(=O)N(CC(=O)N(CCCCN)CC(=O)N(CC(N)=O)Cc1ccc(I)cc1)Cc1ccc(I)cc1)Cc1ccc(I)cc1)Cc1ccc(I)cc1)Cc1ccc(I)cc1)Cc1ccc(I)cc1 [Compound 32] (H-[Nlys][NBzl(4-I)Gly][Nlys][NBzl(4-I)Gly][Nlys][NBzl(4-I)Gly][Nlys][NBzl(4-I)Gly][Nlys][NBzl(4-I)Gly][Nlys][NBzl(4-I)Gly]-NH2)
- critical aggregation concentration (CAC) [1]: 0.4 mg/mL
- antimicrobial potency against the selected bacterial strains, in words [2]: the activity was lost
- Minimal inhibitory concentration PA^g ([3]; H103, 18 h): > 512 µg/mL
- Minimal inhibitory concentration MRSA^c ([4]; USA 300, 18 h): 32 µg/mL (≈ 13.2 µM)
- Minimal inhibitory concentration SA^b (S. aureus ATCC 29213): 128 µg/mL (≈ 52.8 µM)
- Minimal inhibitory concentration SA^a (S. aureus ATCC 25923; ATCC 25923, 18 h): 64 µg/mL (≈ 26.4 µM)
- Minimal inhibitory concentration EC^f (E. coli ATCC 25922; ATCC 25922, 18 h): > 512 µg/mL
- Minimal inhibitory concentration MRSE^d ([5]; Methicillin-resistant ET-024, 18 h): 32 µg/mL (≈ 13.2 µM)
- Minimal inhibitory concentration MRSE^e ([6]; ATCC 51625, 18 h): 16 µg/mL (≈ 6.6 µM)

Compound: C[C@@H](c1ccccc1)N(CC(N)=O)C(=O)CN(C(=O)CN(CCCCN)C(=O)CN(C(=O)CN(C(=O)CN(CCCCN)C(=O)CN(C(=O)CN(C(=O)CN(CCCCN)C(=O)CN(C(=O)CN(C(=O)CNCCCCN)[C@@H](C)c1ccccc1)[C@@H](C)c1ccccc1)[C@@H](C)c1ccccc1)[C@@H](C)c1ccccc1)[C@@H](C)c1ccccc1)[C@@H](C)c1ccccc1)[C@@H](C)c1ccccc1 [Peptoid 1, reference compound] (H-[Nlys][Nspe][Nspe][Nlys][Nspe][Nspe][Nlys][Nspe][Nspe][Nlys][Nspe][Nspe]-NH2)
- IC50 towards HaCaT cell line (HaCaT cell line): 35.0 (30.9 to 39.9) μg/mL
- MIC PA^f ([3]; Table 2, P. aeruginosa PA01 H103): 16 µg/mL (≈ 8.79 µM)
- MIC MRSA^b ([4]; Table 2, MRSA USA 300): 8 µg/mL (≈ 4.4 µM)
- MIC SA^a (S. aureus ATCC 25923; Table 2, S. aureus ATCC 25923): 8 µg/mL (≈ 4.4 µM)
- MIC EC^e (E. coli ATCC 25922; Table 2, E. coli ATCC 25922): 8 µg/mL (≈ 4.4 µM)
- MIC MRSE^c ([5]; Table 2, MRSE ET-024): 4 µg/mL (≈ 2.2 µM)
- MIC MRSE^d ([6]; Table 2, MRSE ATCC 51625): 8 µg/mL (≈ 4.4 µM)
